Source: the supplement of paper PMC13386468

Tests used:
Assay in all cases: IC50 for competition of protein binding to Kinobeads
Settings in all cases: assay detail: Kinobeads competition in P. falciparum blood-stage lysate
[1] = target: UniProt Q8ILI2
[2] = target: UniProt Q8IJA4
[3] = target: UniProt Q8I5C5
[4] = target: UniProt O97256
[5] = target: UniProt Q8III3
[6] = target: UniProt O77385
[7] = target: UniProt Q8II16
[8] = target: UniProt Q8I423
[9] = target: UniProt Q8IDT0
[10] = target: UniProt Q8IIL7
[11] = target: UniProt Q8IIV8
[12] = target: UniProt Q8I5S6
[13] = target: UniProt Q8IKU0
[14] = target: UniProt Q8I467
[15] = target: UniProt Q8ILQ3
[16] = target: UniProt Q8I534
[17] = target: UniProt Q8I5T4
[18] = target: UniProt Q8IC33
[19] = target: UniProt C6KSY6
[20] = target: UniProt Q8IJI0
[21] = target: UniProt Q8IM55
[22] = target: UniProt Q8IDN6
[23] = target: UniProt Q8I2Q0
[24] = target: UniProt Q8I2X4
[25] = target: UniProt Q8I291
[26] = target: UniProt Q76NM8
[27] = target: UniProt Q8I6T2
[28] = target: UniProt Q8I447
[29] = target: UniProt C0H4K8
[30] = target: UniProt Q8IJX0
[31] = target: UniProt Q8IBP0
[32] = target: UniProt Q8IKW5
[33] = target: UniProt O97241
[34] = target: UniProt C0H517
[35] = target: UniProt C6KT96
[36] = target: UniProt Q8I3F1
[37] = target: UniProt Q8I5S7
[38] = target: UniProt Q8I5H7
[39] = target: UniProt Q8I635
[40] = target: UniProt Q8I3Z1
[41] = target: UniProt Q8I5Y9
[42] = target: UniProt Q8IIB4
[43] = target: UniProt Q8I2A1
[44] = target: UniProt Q8IJX3
[45] = target: UniProt Q8IKL1
[46] = target: UniProt Q8I445
[47] = target: UniProt Q8IIW2
[48] = target: UniProt Q8I2X0
[49] = target: UniProt O96220
[50] = target: UniProt Q8ILS0
[51] = target: UniProt Q8IIW5

Measured: IC50
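Further: native unpurified kinases from lysate captured on beads bearing immobilized kinase inhibitors, with bead-bound kinases quantified by mass spectrometry across compound doses.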

UniProt Q8IKU0, sequence (Q8IKU0 whole entry): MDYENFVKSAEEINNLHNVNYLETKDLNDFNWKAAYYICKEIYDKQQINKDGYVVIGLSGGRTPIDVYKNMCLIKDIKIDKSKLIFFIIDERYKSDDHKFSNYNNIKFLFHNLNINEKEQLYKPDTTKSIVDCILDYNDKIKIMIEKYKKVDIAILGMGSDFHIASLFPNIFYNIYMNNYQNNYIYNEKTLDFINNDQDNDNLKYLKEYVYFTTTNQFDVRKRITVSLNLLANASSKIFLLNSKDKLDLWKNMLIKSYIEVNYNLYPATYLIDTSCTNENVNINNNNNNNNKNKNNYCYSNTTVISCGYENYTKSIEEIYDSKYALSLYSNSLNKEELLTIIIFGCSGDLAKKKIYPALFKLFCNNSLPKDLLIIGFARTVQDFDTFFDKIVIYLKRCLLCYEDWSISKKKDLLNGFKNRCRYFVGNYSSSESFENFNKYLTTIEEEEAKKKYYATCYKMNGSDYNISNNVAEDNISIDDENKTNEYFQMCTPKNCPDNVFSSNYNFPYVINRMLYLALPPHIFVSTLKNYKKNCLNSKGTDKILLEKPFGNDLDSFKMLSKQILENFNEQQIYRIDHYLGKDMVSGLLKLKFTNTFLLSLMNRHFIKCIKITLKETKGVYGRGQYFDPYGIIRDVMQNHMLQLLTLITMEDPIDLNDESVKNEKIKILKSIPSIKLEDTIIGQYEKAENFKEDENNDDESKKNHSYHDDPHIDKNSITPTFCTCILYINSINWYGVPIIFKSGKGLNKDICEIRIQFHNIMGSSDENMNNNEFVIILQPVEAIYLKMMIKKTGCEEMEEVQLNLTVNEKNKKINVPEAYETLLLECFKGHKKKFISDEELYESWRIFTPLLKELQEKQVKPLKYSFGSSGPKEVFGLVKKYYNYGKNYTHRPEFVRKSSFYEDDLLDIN
UniProt Q8I467, sequence (Q8I467 whole entry): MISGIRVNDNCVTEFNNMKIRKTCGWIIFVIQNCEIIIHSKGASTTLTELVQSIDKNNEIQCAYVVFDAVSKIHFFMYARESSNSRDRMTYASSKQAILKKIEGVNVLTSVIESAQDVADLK
UniProt Q8I423, sequence (Q8I423 whole entry): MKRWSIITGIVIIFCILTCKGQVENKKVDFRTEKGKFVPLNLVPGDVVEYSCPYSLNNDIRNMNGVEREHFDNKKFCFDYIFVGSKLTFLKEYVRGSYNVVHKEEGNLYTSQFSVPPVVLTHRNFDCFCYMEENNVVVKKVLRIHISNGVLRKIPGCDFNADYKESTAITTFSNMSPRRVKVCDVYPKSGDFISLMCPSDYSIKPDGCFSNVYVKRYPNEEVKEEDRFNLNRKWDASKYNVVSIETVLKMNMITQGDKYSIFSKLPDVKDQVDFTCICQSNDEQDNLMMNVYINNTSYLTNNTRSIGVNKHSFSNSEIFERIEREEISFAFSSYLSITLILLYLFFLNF

O=c1[nH]c2ccc(Cl)cc2c(NC2CN3CCC2CC3)c1-c1nc2ccccc2[nH]1 (stereo unspecified) [CHIR-124]
> 20 µM: [1] | [2] | [3] | [4] | [5] | [6] | [7] | [8] | [9] | [10] | [11] | [12] | [13] | [14] | [15] | [16] | [17] | [18] | [19] | [20] | [21] | [22] | [23] | [24] | [25] | [26] | [27] | [28] | [29] | [30] | [31] | [32] | [33] | [34] | [35] | [36] | [37] | [38] | [39] | [40] | [41] | [42] | [43] | [44] | [45] | [46] | [47] | [48] | [49] | [50] | [51]
